Where “and” joins values, the source holds several entries; their conditions need not be identical. Equal values may be shown once.
Legend:
heparanase [1] = molecular target: T1, heparanase (Homo sapiens, UniProt Q9Y251); experiment: Kinetics and detection limit of heparanase by Compound 1 (HADP); format: biochemical
T1 sequence (Q9Y251 36-543): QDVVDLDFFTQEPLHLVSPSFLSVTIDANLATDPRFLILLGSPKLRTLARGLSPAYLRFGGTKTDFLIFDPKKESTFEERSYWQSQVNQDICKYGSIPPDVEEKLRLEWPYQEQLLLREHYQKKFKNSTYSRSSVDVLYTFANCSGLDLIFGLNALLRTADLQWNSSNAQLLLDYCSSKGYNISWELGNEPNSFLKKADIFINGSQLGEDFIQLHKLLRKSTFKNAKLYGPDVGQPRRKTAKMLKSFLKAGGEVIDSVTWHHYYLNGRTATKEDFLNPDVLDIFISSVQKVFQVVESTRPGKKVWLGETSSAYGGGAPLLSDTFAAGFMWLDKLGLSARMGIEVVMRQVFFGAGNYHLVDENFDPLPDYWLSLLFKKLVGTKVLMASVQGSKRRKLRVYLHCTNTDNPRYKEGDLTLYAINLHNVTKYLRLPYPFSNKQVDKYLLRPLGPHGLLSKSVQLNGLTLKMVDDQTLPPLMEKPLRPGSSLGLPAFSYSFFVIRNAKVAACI
Procedure: To a solution of 20 μL, of 50 μM HADP (compound 1) and 160 μL 40 mM NaOAc buffer (pH 5.0) buffers was added 20 μL, heparanase with various concentrations (0-0.1 μg/μL) in 96-well microplate. Then final concentration of heparanase is from 0-0.01 μg/μL. Each concentration was performed in triplicates. Then the fluorescence intensity was recorded on Spectramax M5 Multimode plate reader (Molecular Devices, USA) at each timepoint. λex/em=365 nm/455 nm.
To calculate the detection limit, plot the fluorescence intensity against heparanase concentration and fit a line with linear regression. The detection limit was estimated with the following formula. LOD=3 σ/s, where σ represents standard deviation of fluorescent intensity of blank sample, s is the calculated slope of linear regression equation.
To determine the detection limit of Compound 1 (HADP) probe for heparanse, concentration-dependent studies with various concentrations of heparanse over time were performed with 5 μM 1 (HADP). The concentration increases of heparanse led to higher fluorescent intensities at the same time point due to the expedited cleavage of glyosidic bond, releasing more fluorophores. A good linear relationship was obtained in the heparanse concentration range of 0-0.01 μgμl-1 with an equation of F455 nm=650443[HPA]+12.03 (R^2=0.9968). Based on 3σ/s method, the limit of detection (LOD) of Compound 1 for heparanse was calculated to be 0.35 ng/mL (67 pM), indicating the ultra-sensitivity of Compound 1 (HADP) to detect heparanase activity. The kinetic parameters for the enzymatic cleavage of Compound 1 (HADP) were determined via time-dependent fluorescence intensity in the presence of heparanase and probe 1 (HADP) at different concentration.

Hyaluronidase = experiment: Fluorescence response to biological species: hyaluronidase; format: biochemical; details: 5 μM; hyaluronidase 5 μg (50 μg also tested); 4 h, 37° C.
Procedure: (§1) 5 μM compound 1 (HADP) was incubated with various biological species at the indicated amount/concentration in 96-well microplate. Cysteine (5 mM), Glutathione (5 mM), H2O2 (100 μM), Esterase, Chondroitinase ABC, Hyaluronidase, Lysozyme, β-Glucuronidase, β-Glucosidase (5 μg each) and heparanase (2 μg). For Chondroitinase ABC and Hyaluronidase, 50 μg was also tested. Each sample was performed in triplicates. Then the microplate was sealed with sealing film and incubated at 37° C. for 4 hours. Fluorescence intensity was recorded on Spectramax M5 Multimode plate reader (Molecular Devices, USA). λex/em=365 nm/455 nm.

[2] = Fluorescence response to biological oxidizing and reducing species; details: 5 μM; 100 μM H2O2, 5 mM GSH and Cys; 4 h, 37° C.
Procedure: as §1

heparanase [3] = molecular target: T1, heparanase; experiment: HPLC analysis of compounds 1-4 with heparanase; format: biochemical; details: 5 μM, heparanase 1 μg, 4 hours, 37° C., NaOAc pH 5.0
Procedure: Heparanase (1 μg, 20 μL) was added to the compounds 1-4 solution (180 μL, 5 μM) in 40 mM NaOAc buffer (pH 5.0) and the mixture was incubated for 4 hours at 37° C. The resulting mixtures were injected into HPLC for analysis. HPLC analysis was performed under the following conditions—mobile phase A: water with 0.1% TFA; B: acetonitrile with 0.1% TFA; 0-20 min: gradient elution, 25-95% B. The trace was monitored by DAD detector at 315 nm.

β-Glucuronidase = molecular target: T2, β-Glucuronidase (Homo sapiens, UniProt P08236); experiment: Fluorescence response to biological species: β-glucuronidase; format: biochemical; details: 5 μM; β-glucuronidase 5 μg; 4 h, 37° C.
T2 sequence (P08236 23-651): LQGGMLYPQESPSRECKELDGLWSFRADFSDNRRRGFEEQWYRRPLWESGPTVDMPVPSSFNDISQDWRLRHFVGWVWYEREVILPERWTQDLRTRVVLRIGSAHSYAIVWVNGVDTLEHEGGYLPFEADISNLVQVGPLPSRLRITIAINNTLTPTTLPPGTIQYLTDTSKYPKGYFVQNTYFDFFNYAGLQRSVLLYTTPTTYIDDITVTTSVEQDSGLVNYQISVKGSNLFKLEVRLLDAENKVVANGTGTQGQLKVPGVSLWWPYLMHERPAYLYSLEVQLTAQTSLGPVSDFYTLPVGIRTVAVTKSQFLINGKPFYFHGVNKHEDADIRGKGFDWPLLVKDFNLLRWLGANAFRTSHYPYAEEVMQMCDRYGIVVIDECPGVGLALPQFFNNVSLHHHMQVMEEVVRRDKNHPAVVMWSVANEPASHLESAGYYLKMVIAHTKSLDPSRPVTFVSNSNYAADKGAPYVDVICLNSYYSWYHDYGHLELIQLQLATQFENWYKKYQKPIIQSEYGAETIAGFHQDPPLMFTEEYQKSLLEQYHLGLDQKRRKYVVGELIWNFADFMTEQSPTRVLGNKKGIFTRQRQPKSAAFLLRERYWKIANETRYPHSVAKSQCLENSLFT
Procedure: as §1

[4] = Selectivity toward heparanase against interfering biological molecules and enzymes; format: biochemical
Procedure: as §1

## Cc1cc(=O)oc2c(F)c(O[C@@H]3O[C@H](C(=O)O)[C@@H](O[C@H]4O[C@H](CO)[C@@H](O)[C@H](O)[C@H]4NS(=O)(=O)O)[C@H](O)[C@H]3O)c(F)cc12 [Compound 1]
Heparanase [1]; 5 μM probe, 3σ/s method
  limit of detection (LOD) for heparanase: 0.35 ng/mL and 67 pM
Heparanase [1]; enzymatic cleavage by heparanase
  turnover number (kcat): 0.04 s⁻¹
Heparanase [1]; enzymatic cleavage by heparanase, read-out: Michaelis constant (Km)
  Km: 8.3 µM
Hyaluronidase
  fluorescence change: did not afford obvious fluorescence change
[2]
  fluorescence change: No fluorescence change
Heparanase [3]
  cleavage by heparanase (HPLC trace): clean conversion
β-Glucuronidase
  fluorescence response: did not trigger fluorescence response
[4]
  selectivity for heparanase over other competitive analytes: excellent selectivity
[4]; 5 μM, superphysiological levels, 4 h, 37° C.
  fluorescence increase upon addition of other molecules and enzymes: no fluorescence increase
